For 15 compounds, IC50 results are on record in US20220160686A1, “MACROCYCLIC AZOLOPYRIDINE DERIVATIVES AS EED AND PRC2 MODULATORS” (Fulcrum Therapeutics, Inc., priority 2019, published 2022).

The first data set deals with human P-glycoprotein HEK cells (HEK-P-gp). Nature of the data set: H3K27me3 immunocytochemistry assay in P-gp expressing HEK293T cells, with or without elacridar. Type of data set: cell-based.
Details: not given
Here is the method:
A plasmid encoding the human ABCB1 gene under the control of a CMV promoter was purchased from Origene (Cat #RC216080). The HEK293T cells were purchased from ATCC (Cat #CRL-3216) and were cultured for expansion in the recommended conditions. The HEK293T cells were transfected with 2 ug of the pCMV-ABCB1 plasmid using Lipofectamine 3000 following recommendations from the manufacturer (ThermoFisher Scientific, Cat #L3000008). After 24 h, cells were dissociated, and 5000 cells were seeded on a 10 cm tissue culture dish. On the next day, fresh media containing 5 nM Vinblastine (Sigma, Cat #V1377) was added, and media containing compound was replenished every 72 h. After surviving cells reached confluency, cells were passaged, and lines were maintained in the presence of 2.5 nM Vinblastine until further characterization.
P-gp expressing HEK293T, HUDEP2, and Human Mobilized Peripheral Blood Primary CD34+ cells were cultured for use in an H3K27me3 immunocytochemistry assay. HUDEP2 and Human Mobilized Peripheral Blood Primary CD34+ cells were cultured for use in an HbF immunocytochemistry assay. P-gp expressing HEK293T cells were maintained and passaged every 3-4 days by plating 300,000 viable cells in a T-25 culture flask containing 6 mLs of 293 Passaging Media comprised of DMEM (ThermoFisher #10566016), 10% fetal bovine serum (ThermoFisher #A3160502), 1% penicillin-streptomycin (ThermoFisher #15140122), and 2.5 nM Vinblastine (Sigma #V1377). To evaluate the inhibitory effect of the compounds of the present disclosure and their brain penetrant properties via P-gp mediated efflux, the H3K27me3 immunocytochemistry assay was conducted in the presence or absence of 250 nM of the P-gp inhibitor, elacridar. Poor brain penetrant compounds were expected to show higher potencies in the presence of Elacridar. However, brain penetrant compounds would show similar potencies irrespective of whether Elacridar is present or not. In these experiments plates without elacridar were seeded with P-gp expressing HEK293T cells at 1000 viable cells per well in a poly-d-lysine coated 384-well plate (Corning Cat #356697) in 45 μL of 293 Assay Media comprised of DMEM (ThermoFisher #10566016), 10% fetal bovine serum (ThermoFisher #A3160502), 1% penicillin-streptomycin (ThermoFisher #15140122). A replicate set of plates were seeded under the same conditions with 45 μL of 293 Assay Media supplemented with 250 nM of Elacridar to inhibit P-gp activity. Compounds were serially diluted at 10× concentration in 293 Media, and 5 μL transferred to their respective wells on both sets of plates for a total volume of 50 μL per well. The compound treated HEK293T cells were allowed to incubate for 4 days at 37° C., 85% relative humidity, and 5% CO2 before proceeding to ICC Fix and Stain protocol.
The Fix and Stain Protocol was the same for HEK293T, HUDEP2, and Primary CD34+ cell assays except the specific primary and secondary antibodies used for detection. Following 4 days of compound treatment, the respective plates were washed once with 25 μL of PBS (ThermoFisher #10010023) and fixed with 25 μL of 4% paraformaldehyde (ThermoFisher #28908) for 10 minutes at room temperature. The plates were then washed three times with 25 μL of PBS. Subsequent to that, the cells were permeabilized and blocked for 1 hour at room temperature in 25 μL of Perm/Block buffer comprised of IX PBS, 1% bovine serum albumin (ThermoFisher #A3294), 10% fetal bovine serum (ThermoFisher #A3160502), 0.3M glycine (Sigma #G7126), and 0.1% tween-20 (Sigma #P7949). This was followed by additional washing (three times) of the plates with 25 μL of 0.1% tween in PBS.
For the H3K27me3 assay, the cells were incubated overnight at 4° C. with 25 μL of H3K27me3 Primary Antibody (Cell Signaling #9733) diluted 1:200 in 0.1% tween-20 in PBS. […]
In general, IC50 refers to the concentration that gives 50% inhibition. Turning to `COc1cc(C)c(-c2cc3c(n4cnnc24)NCc2c(F)ccc4c2[C@@H](CO4)CO3)cn1` [Example 68, (S)-12-fluoro-4-(6-methoxy-4-methylpyridin-3-yl)-7a,8,13,14-tetrahydro-7H-[1,2,4]triazolo[4′,3′:1,6]pyrido[3,2-b]benzofuro[4,3-fg][1,4]oxazonine], the IC50 was 50 to 100 nM.

On to `Cn1cc(-c2cc3c(n4cnnc24)NCc2c(F)ccc4c2[C@@H](CO4)CO3)ccc1=O` [Example 69, (S)-5-(12-fluoro-7a,8,13,14-tetrahydro-7H-[1,2,4]triazolo[4′,3′:1,6]pyrido[3,2-b]benzofuro[4,3-fg][1,4]oxazonin-4-yl)-1-methylpyridin-2(1H)-one], for which the IC50 was < 25 nM.

Regarding `COc1nccc(C)c1-c1cc2c(n3cnnc13)NCc1c(F)ccc3c1[C@@H](CO3)CO2` [Example 71, (S)-12-fluoro-4-(2-methoxy-4-methylpyridin-3-yl)-7a,8,13,14-tetrahydro-7H-[1,2,4]triazolo[4′,3′:1,6]pyrido[3,2-b]benzofuro[4,3-fg][1,4]oxazonine], the IC50 was < 25 nM.

Take `Fc1ccc2c3c1CNc1c(cc(-c4ccnn4CC(F)(F)F)c4nncn14)OC[C@@H]3CO2` [Example 72, (S)-12-fluoro-4-(1-(2,2,2-trifluoroethyl)-1H-pyrazol-5-yl)-7a,8,13,14-tetrahydro-7H-[1,2,4]triazolo[4′,3′:1,6]pyrido[3,2-b]benzofuro[4,3-fg][1,4]oxazonine]: the IC50 lay within 50 to 100 nM.

`Cc1nc(-c2cc3c(n4cnnc24)NCc2c(F)ccc4c2[C@@H](CO4)CO3)ccc1C(F)F` [Example 77, (S)-4-(5-(difluoromethyl)-6-methylpyridin-2-yl)-12-fluoro-7a,8,13,14-tetrahydro-7H-[1,2,4]triazolo[4′,3′:1,6]pyrido[3,2-b]benzofuro[4,3-fg][1,4]oxazonine] came in with an IC50 of 100 to 500 nM.

Regarding `Cc1nccc(-c2cc3c(n4cnnc24)NCc2c(F)ccc4c2[C@@H](CO4)CO3)c1F` [Example 86, (S)-12-fluoro-4-(3-fluoro-2-methylpyridin-4-yl)-7a,8,13,14-tetrahydro-7H-[1,2,4]triazolo[4′,3′:1,6]pyrido[3,2-b]benzofuro[4,3-fg][1,4]oxazonine], the IC50 was in the range of 25 to 50 nM.

As to `CN(C)c1cc(-c2cc3c(n4cnnc24)NCc2c(F)ccc4c2[C@@H](CO4)CO3)n(C)n1` [Example 91, (S)-5-(12-fluoro-7a,8,13,14-tetrahydro-7H-[1,2,4]triazolo[4′,3′:1,6]pyrido[3,2-b]benzofuro[4,3-fg][1,4]oxazonin-4-yl)-N,N,1-trimethyl-1H-pyrazol-3-amine], the IC50 was 100 to 500 nM.

As for `Cn1cnc(-c2cc3c(n4cnnc24)NCc2c(F)ccc4c2[C@@H](CO4)CO3)c1` [Example 94, (S)-12-fluoro-4-(1-methyl-1H-imidazol-4-yl)-7a,8,13,14-tetrahydro-7H-[1,2,4]triazolo[4′,3′:1,6]pyrido[3,2-b]benzofuro[4,3-fg][1,4]oxazonine], the IC50 is 25 to 50 nM.

`Cc1cc(C)c(-c2cc3c(n4cnnc24)NCc2c(F)ccc4c2[C@@H](CO4)CO3)cn1` [Example 96, (S)-4-(4,6-dimethylpyridin-3-yl)-12-fluoro-7a,8,13,14-tetrahydro-7H-[1,2,4]triazolo[4′,3′:1,6]pyrido[3,2-b]benzofuro[4,3-fg][1,4]oxazonine]: the IC50 fell in the range of 50 to 100 nM.

Take `CN(C)C(=O)c1ccc(-c2cc3c(n4cnnc24)NCc2c(F)ccc4c2[C@@H](CO4)CO3)cn1` [Example 152, (S)-5-(12-fluoro-7a,8,13,14-tetrahydro-7H-[1,2,4]triazolo[4′,3′:1,6]pyrido[3,2-b]benzofuro[4,3-fg][1,4]oxazonin-4-yl)-N,N-dimethylpicolinamide]: the IC50 was < 25 nM.

Take “(S)-1-(4-(12-fluoro-7a,8,13,14-tetrahydro-7H-[1,2,4]triazolo[4′,3′:1,6]pyrido[3,2-b]benzofuro[4,3-fg][1,4]oxazonin-4-yl)piperidin-1-yl)ethan-1-one [Compound 9]”: the IC50 was > 500 nM.

On to “(S)-12-fluoro-4-(2-methylpyridin-3-yl)-7a,8,13,14-tetrahydro-7H-[1,2,4]triazolo[4′,3′:1,6]pyrido[3,2-b]benzofuro[4,3-fg][1,4]oxazonine [Compound 8]”, for which the IC50 is < 25 nM.

The data set is the same for the next values; noted with them: Homo sapiens, HEK293, 96 h, without elacridar; 4 days compound treatment; read-out: IC50, inhibitory activity on human P-glycoprotein HEK cells (HEK-P-gp).
As to `COC(=O)N1CCC(c2cc3c(n4cnnc24)NCc2c(F)cccc2COC3)CC1` [Compound 181, methyl 4-(12-fluoro-6,8,13,14-tetrahydro-[1,2,4]triazolo[4′,3′:1,6]pyrido[3,2-c]benzo[g][1,5]oxazonin-4-yl)piperidine-1-carboxylate], the IC50 is > 500 nM.

Consider `Cc1ncc(-c2cc3c(n4cnnc24)NCc2c(F)cccc2COC3)c(C)n1` [Compound 182, 4-(2,4-dimethylpyrimidin-5-yl)-12-fluoro-6,8,13,14-tetrahydro-[1,2,4]triazolo[4′,3′:1,6]pyrido[3,2-c]benzo[g][1,5]oxazonine], for which the IC50 was > 500 nM.

For `Cn1cc(Cc2cc3c(n4cnnc24)NCc2c(F)cccc2COC3)cn1` [Compound 183, 12-fluoro-4-((1-methyl-1H-pyrazol-4-yl)methyl)-6,8,13,14-tetrahydro-[1,2,4]triazolo[4′,3′:1,6]pyrido[3,2-c]benzo[g][1,5]oxazonine], the IC50 is > 500 nM.

Still in this data set, the particulars now being: Homo sapiens, HEK293, with 250 nM elacridar; 4 days compound treatment; read-out: IC50, inhibitory activity on human P-glycoprotein HEK cells (HEK-P-gp) pretreated with elacridar.
As for `COC(=O)N1CCC(c2cc3c(n4cnnc24)NCc2c(F)cccc2COC3)CC1` [Compound 181, methyl 4-(12-fluoro-6,8,13,14-tetrahydro-[1,2,4]triazolo[4′,3′:1,6]pyrido[3,2-c]benzo[g][1,5]oxazonin-4-yl)piperidine-1-carboxylate], the IC50 is > 500 nM.

As for `Cc1ncc(-c2cc3c(n4cnnc24)NCc2c(F)cccc2COC3)c(C)n1` [Compound 182, 4-(2,4-dimethylpyrimidin-5-yl)-12-fluoro-6,8,13,14-tetrahydro-[1,2,4]triazolo[4′,3′:1,6]pyrido[3,2-c]benzo[g][1,5]oxazonine], the IC50 was > 500 nM.

As to `Cn1cc(Cc2cc3c(n4cnnc24)NCc2c(F)cccc2COC3)cn1` [Compound 183, 12-fluoro-4-((1-methyl-1H-pyrazol-4-yl)methyl)-6,8,13,14-tetrahydro-[1,2,4]triazolo[4′,3′:1,6]pyrido[3,2-c]benzo[g][1,5]oxazonine], the IC50 is > 500 nM.
